Values quoted from earlier work, collected in US20130121963A1, “N-PHENYL-2-PYRIMIDINEAMINE DERIVATIVES” (Concert Pharmaceuticals Inc., priority 2008, published 2013).

half-life (from the FDA label for imatinib): 40 h
plasma AUC of the metabolite relative to that of the parent (percent of the parent (imatinib) plasma AUC, from the FDA label): approximately 15%
SMILES: Cc1ccc(NC(=O)c2ccc(CN3CCNCC3)cc2)cc1Nc1nccc(-c2cccnc2)n1 [N-demethylated piperazine derivative]
